{
  "source": "patent US9868766B2",
  "about": "“Peptides as oxytocin agonists” (Hoffmann-La Roche Inc., priority 2012, dated 2018)",
  "target": "T1, human Oxytocin (OTR) receptor (Homo sapiens, UniProt P30559)",
  "T1 construct": "expressed in transfected cells",
  "T1 sequence (P30559 1-389)": "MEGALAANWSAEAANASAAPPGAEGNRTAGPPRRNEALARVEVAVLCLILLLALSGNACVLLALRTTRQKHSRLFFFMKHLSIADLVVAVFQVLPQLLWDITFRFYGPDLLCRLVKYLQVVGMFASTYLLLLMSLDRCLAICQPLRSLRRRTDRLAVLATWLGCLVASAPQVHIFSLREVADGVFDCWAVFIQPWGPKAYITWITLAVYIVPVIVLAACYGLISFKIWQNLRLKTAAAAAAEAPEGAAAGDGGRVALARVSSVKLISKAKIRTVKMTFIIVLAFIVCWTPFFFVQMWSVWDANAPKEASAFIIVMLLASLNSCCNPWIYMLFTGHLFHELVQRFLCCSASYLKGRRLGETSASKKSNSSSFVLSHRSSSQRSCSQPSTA",
  "assay": "Calcium flux assay (FLIPR), agonist mode, CHO cells expressing human OTR",
  "type": "cell-based",
  "conditions": "for EC50: CHO cells stably expressing human OTR, calcium flux, read-out: hOT EC50; for hOT efficacy (%): maximum response normalized to endogenous full agonist = 100%",
  "description": "Chines Hamster Ovary (CHO) cells were transfected with expression plasmids encoding either the human V1a, the human Oxytocin (OTR) or the humanV2 receptor, the later in combination with the chimeric Gqs5 G protein to redirect the signal to Calcium flux. Stable cells were cloned by limiting dilution to yield monoclonal cell lines expressing either human V1a, human V2+Gqs5 or human OTR receptors and selected based on functional responses detected on a fluorometric imaging plate reader (FLIPR) detecting Calcium flux in the cell after receptor activation.\nOn the afternoon before the assay, cells were plated at a density of 50,000 cells/well into black 96 well plates with clear bottoms to allow cell inspection and fluorescence measurements from the bottom of each well. The density of cells was sufficient to yield a confluent monolayer the next day. Hanks balanced salt solution, without phenol red, containing 20 mM HEPES (pH 7.3) and 2.5 mM probenecid (assay buffer) was prepared fresh for each experiment. Compound dilutions were made using a Beckman Biomek 2000 laboratory automation workstation, in assay buffer containing 1% DMSO. The dye-loading buffer consisted of a final concentration of 2 μM Fluo-4-AM (dissolved in DMSO and pluronic acid) in assay buffer. […] Once dye-loaded, the cells were washed thoroughly on an Embla cell washer with the assay buffer to remove any unincorporated dye. Exactly 100 μl assay buffer was left in each well.\nEach 96 well plate containing dye-loaded cells was placed into the FLIPR machine and the laser intensity set to a suitable level to detect low basal fluorescence. To test compounds as agonists, 25 μl diluted compound was added to the plate 10 seconds into the fluorescent measurements and fluorescent response was recorded for 5 minutes. The fluorescence data was normalized to the endogenous full agonist dose-response set at 100% for the maximum response and 0% for the minimum. […] The concentration of agonist that produced a half-maximal response is represented by the EC50 value, the logarithm of which yielded the pEC50 value.",
  "note": "Positions of bridges follow the written chain, without caps; N, C: chain ends. Non-standard residues stand in square brackets, D forms with d. Residues, ends and D or L forms follow the SMILES beside them. d(aIle) = CC[C@H](C)[C@@H](N)C(=O)O; β3hP = O=C(O)C[C@@H]1CCCN1; Sar = CNCC(=O)O",
  "data": [
    {"compound": "CC[C@H](C)[C@@H]1NC(=O)[C@H](Cc2ccc(O)cc2)NC(=O)[C@H](C)NC(=O)CC[C@@H](C(=O)N2CCC[C@H]2C(=O)N[C@@H](CC(C)C)C(=O)NCC(N)=O)NC(=O)[C@H](CC(N)=O)NC(=O)[C@H](CCC(N)=O)NC1=O", "note": "[Example 3] (AYIQNEPLG-NH2; lactam N-6)", "values": [
      {"measurement": "EC50", "result": 4, "unit": "nM"},
      {"measurement": "hOT efficacy (%)", "result": 94, "unit": "%"}
    ]},
    {"compound": "CC[C@H](C)[C@@H]1NC(=O)[C@H](Cc2ccc(O)cc2)NC(=O)CNC(=O)CC[C@@H](C(=O)N2CCC[C@H]2CC(=O)N[C@@H](CC(C)C)C(=O)NCC(N)=O)NC(=O)[C@H](CC(N)=O)NC(=O)[C@H](CCC(N)=O)NC1=O", "note": "[Example 4] (GYIQNE[β3hP]LG-NH2; lactam N-6)", "values": [
      {"measurement": "EC50", "result": 31, "unit": "nM"},
      {"measurement": "hOT efficacy (%)", "result": 102, "unit": "%"}
    ]},
    {"compound": "CC[C@H](C)[C@@H]1NC(=O)[C@H](Cc2ccc(O)cc2)NC(=O)CNC(=O)CC[C@@H](C(=O)N2CCC[C@H]2C(=O)N[C@@H](CC(C)C)C(=O)N(C)CC(N)=O)NC(=O)[C@H](CC(N)=O)NC(=O)[C@H](CCC(N)=O)NC1=O", "note": "[Example 5] (GYIQNEPL[Sar]-NH2; lactam N-6)", "values": [
      {"measurement": "EC50", "result": 181, "unit": "nM"},
      {"measurement": "hOT efficacy (%)", "result": 108, "unit": "%"}
    ]},
    {"compound": "CC[C@H](C)[C@@H]1NC(=O)[C@H](Cc2ccc(O)cc2)NC(=O)CNC(=O)CC[C@@H](C(=O)N2CCC[C@H]2C(=O)NCC(=O)NCC(N)=O)NC(=O)[C@H](CC(N)=O)NC(=O)[C@H](CCC(N)=O)NC1=O", "note": "[Example 7] (GYIQNEPGG-NH2; lactam N-6)", "values": [
      {"measurement": "EC50", "result": 124, "unit": "nM"},
      {"measurement": "hOT efficacy (%)", "result": 87, "unit": "%"}
    ]},
    {"compound": "CC(C)C[C@@H]1NC(=O)[C@H](Cc2ccc(O)cc2)NC(=O)CNC(=O)CC[C@@H](C(=O)N2CCC[C@H]2C(=O)N[C@@H](CC(C)C)C(=O)NCC(N)=O)NC(=O)[C@H](CC(N)=O)NC(=O)[C@H](CCC(N)=O)NC1=O", "note": "[Example 8] (GYLQNEPLG-NH2; lactam N-6)", "values": [
      {"measurement": "EC50", "result": 100, "unit": "nM"},
      {"measurement": "hOT efficacy (%)", "result": 92, "unit": "%"}
    ]},
    {"compound": "CC[C@H](C)[C@@H]1NC(=O)[C@H](Cc2ccc(O)cc2)NC(=O)CNC(=O)CC[C@@H](C(=O)N2CCC[C@H]2C(=O)N[C@@H](CC(C)C)C(=O)NCC(N)=O)NC(=O)[C@H](CC(N)=O)NC(=O)[C@H](Cc2cnc[nH]2)NC1=O", "note": "[Example 9] (GYIHNEPLG-NH2; lactam N-6)", "values": [
      {"measurement": "EC50", "result": 118, "unit": "nM"},
      {"measurement": "hOT efficacy (%)", "result": 93, "unit": "%"}
    ]},
    {"compound": "CC[C@H](C)[C@@H]1NC(=O)[C@H](Cc2ccc(O)cc2)NC(=O)CN(C)C(=O)CC[C@@H](C(=O)N2CCC[C@H]2C(=O)N[C@@H](CC(C)C)C(=O)NCC(N)=O)NC(=O)[C@H](CC(N)=O)NC(=O)[C@H](CCC(N)=O)NC1=O", "note": "[Example 12] ([Sar]YIQNEPLG-NH2; lactam N-6)", "values": [
      {"measurement": "EC50", "result": 48, "unit": "nM"},
      {"measurement": "hOT efficacy (%)", "result": 82, "unit": "%"}
    ]},
    {"compound": "CC[C@H](C)[C@@H]1NC(=O)[C@H](Cc2ccc(O)cc2)NC(=O)CNC(=O)CC[C@H](C(=O)N2CCC[C@H]2C(=O)N[C@@H](CC(C)C)C(=O)NCC(N)=O)NC(=O)[C@H](CC(N)=O)NC(=O)[C@H](CCC(N)=O)NC1=O", "note": "[Example 14] (GYIQN[dE]PLG-NH2; lactam N-6)", "values": [
      {"measurement": "EC50", "result": 250, "unit": "nM"},
      {"measurement": "hOT efficacy (%)", "result": 92, "unit": "%"}
    ]},
    {"compound": "CC[C@H](C)[C@H]1NC(=O)[C@H](Cc2ccc(O)cc2)NC(=O)CNC(=O)CC[C@@H](C(=O)N2CCC[C@H]2C(=O)N[C@@H](CC(C)C)C(=O)NCC(N)=O)NC(=O)[C@H](CC(N)=O)NC(=O)[C@H](CCC(N)=O)NC1=O", "note": "[Example 22] (GY[d(aIle)]QNEPLG-NH2; lactam N-6)", "values": [
      {"measurement": "EC50", "result": 98, "unit": "nM"},
      {"measurement": "hOT efficacy (%)", "result": 116, "unit": "%"}
    ]},
    {"compound": "CC[C@H](C)[C@@H]1NC(=O)[C@H](Cc2ccc(O)cc2)NC(=O)CNC(=O)CC[C@@H](C(=O)N2CCC[C@@H]2C(=O)N[C@@H](CC(C)C)C(=O)NCC(N)=O)NC(=O)[C@H](CC(N)=O)NC(=O)[C@H](CCC(N)=O)NC1=O", "note": "[Example 23] (GYIQNE[dP]LG-NH2; lactam N-6)", "values": [
      {"measurement": "EC50", "result": 88, "unit": "nM"},
      {"measurement": "hOT efficacy (%)", "result": 64, "unit": "%"}
    ]}
  ]
}
